From paper PMC6857474, “Differential Effects of the Mitochondria-Active Tetrapeptide SS-31 (D-Arg-dimethylTyr-Lys-Phe-NH2) and Its Peptidase-Targeted Prodrugs in Experimental Acute Kidney Injury” (Frontiers in Pharmacology, 2019)
Where two headings read alike, the source gives them in different places. Non-standard residues stand in square brackets, D forms with d. Residues, ends and D or L forms follow the SMILES beside them. Dmt = Cc1cc(O)cc(C)c1C[C@H](N)C(=O)O

Experiments:
[1] = Stability in mouse plasma at 37°C; type: in vitro ADME; settings: for Release of SS-31 from α-Glu-SS-31 / Stability [% of T0]: 1 μM; for remaining at 0.5 h, 1 µM / remaining at 1 h, 1 µM / remaining at 3 h, 1 µM / remaining at 5 h, 1 µM: heparinized mouse plasma, read-out: Stability [% of T0]
Procedure: Finally, we determined if α-Glu functionalization of SS-31 would improve the plasma stability of the compound. SS-31 or α-Glu-SS-31 (at 1 µM concentration) was added to heparinized mouse plasma, and the aliquots were incubated at 37°C for various time points before analysis ( Table 2 ). After a rapid decrease of α-Glu-SS-31 concentration, associated with the appearance of free SS-31, in mouse plasma, the concentration of both compounds remained stable for up to 5 h, whereas SS-31 concentration decreased regularly during the same period of time.

aminopeptidase A (APA) [2] = biological target: T1, aminopeptidase A (APA) (Mus musculus, UniProt P16406); assay: Histoenzymography of APA activity on frozen kidney sections of ADR-treated mice; type: biochemical; settings: kidney sections of ADR-exposed mice, α-Glu-βNA substrate, 37°C
T1 construct: from tissue; host or cells: frozen kidney sections of ADR-treated BALB/c male mice
T1 sequence (P16406 1-945): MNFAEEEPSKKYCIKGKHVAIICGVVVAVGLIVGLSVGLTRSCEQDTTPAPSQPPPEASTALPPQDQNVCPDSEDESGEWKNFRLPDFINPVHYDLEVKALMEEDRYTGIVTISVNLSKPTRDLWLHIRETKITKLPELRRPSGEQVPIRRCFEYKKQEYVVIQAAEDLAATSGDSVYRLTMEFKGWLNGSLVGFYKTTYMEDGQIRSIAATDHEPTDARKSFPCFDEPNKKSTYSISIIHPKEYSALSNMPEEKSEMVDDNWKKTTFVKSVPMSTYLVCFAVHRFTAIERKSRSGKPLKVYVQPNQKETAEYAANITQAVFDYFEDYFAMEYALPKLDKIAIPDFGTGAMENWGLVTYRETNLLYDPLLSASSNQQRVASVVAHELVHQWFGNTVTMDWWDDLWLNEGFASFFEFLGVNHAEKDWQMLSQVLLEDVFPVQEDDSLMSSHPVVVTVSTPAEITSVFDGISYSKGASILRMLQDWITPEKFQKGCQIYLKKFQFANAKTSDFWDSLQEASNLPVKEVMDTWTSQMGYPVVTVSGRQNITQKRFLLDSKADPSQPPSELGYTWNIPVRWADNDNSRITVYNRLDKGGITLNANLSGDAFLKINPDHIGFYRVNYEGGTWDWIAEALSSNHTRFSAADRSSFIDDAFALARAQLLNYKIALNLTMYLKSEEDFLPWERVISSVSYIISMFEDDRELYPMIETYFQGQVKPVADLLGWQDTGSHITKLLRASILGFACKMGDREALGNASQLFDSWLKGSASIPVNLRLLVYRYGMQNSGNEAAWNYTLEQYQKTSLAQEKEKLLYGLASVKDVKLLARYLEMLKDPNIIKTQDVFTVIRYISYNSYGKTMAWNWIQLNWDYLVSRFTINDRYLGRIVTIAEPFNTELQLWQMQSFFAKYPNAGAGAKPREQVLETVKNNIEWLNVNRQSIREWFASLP
Procedure: Enzymatic activities were evaluated by histoenzymography on OCT-embedded frozen kidneys sections (7 µm), as previously described ([Juillerat-Jeanneret et al., 1992]; [Juillerat-Jeanneret et al., 2000]; [Juillerat-Jeanneret et al., 2003]). Briefly, slides were fixed for 5 min in cold (−20°C) acetone, air dried at room temperature, rehydrated for 5 min in 0.9% NaCl, and exposed to the α-Glu-4-methoxy-β-naphtylamide (APA; Bachem) or γ-Glu-4-methoxy-β-naphtylamide (γ-GT; Serva) substrates and Fast Blue B (Sigma-Aldrich) at 37°C for 15 to 60 min until a red coloration was visible. The slides were washed in distilled water, counterstained with hematoxylin (Mayer) for 1 min, rinsed under tap water and then with Scott solution for 1 min, and mounted in Aquamount (Immu-mount; Thermo Shandon, Pittsburgh, PA, USA) and analyzed with a Nikon Eclipse E800 microscope and digital DXM1200 camera using ACT-1 software.
Sequential sections (7 µm) of frozen OCT-embedded kidneys of adriamycin (ADR)-treated mice were exposed at 37°C to β-methoxynaphthylamide (β-NA) specific substrates of aminopeptidase A (α-Glu-βNA, upper panels) or γ-glutamyltranspeptidase (γ-Glu-βNA, lower panels) and Fast Blue B, in the absence (none) or the presence of SS-31, α-Glu-SS-31 or γ-Glu-SS-31. The sections were then counterstained with light hematoxylin reagent. The enzymatic activity is visualized as a red precipitate. […]

aminopeptidase A (APA) [3] = biological target: T2, aminopeptidase A (APA) (Rattus norvegicus, UniProt P50123); assay: APA enzymatic activity in intact living EC219 cells (α-Glu-AMC substrate); type: cell-based
T2 construct: These cells express high levels of APA and γ-GT activities and can be used to measure kinetics in living cells; endogenous in cells; host or cells: EC219 rat brain-derived endothelial cells
Procedure: The preparation and characterization of rat brain-derived EC219 endothelial cells were previously described ([Juillerat-Jeanneret et al., 1992]). These cells express high levels of APA and γ-GT activities and can be used to measure kinetics in living cells as APA and γ-GT-positive representative cell models. The cells were grown in Dulbecco’s modified Eagle medium (DMEM) containing 1 g/L glucose, 10% heat-inactivated fetal calf serum (FCS), and antibiotics on uncoated cell culture plastic plates and flasks. MDCK and LLCPK cells were obtained from the American Tissue Culture Collection (ATCC, Manassas, VA, USA) and were grown in DMEM containing 4.5 g/L glucose, 10% FCS, and antibiotics. mCCD, and mDCT cells were a kind gift from O. Bonny (UNIL, Lausanne, Switzerland) and were cultured in DMEM (Ham’s F12 1:1 vol/vol, 60 nM sodium selenate, 5 μg/ml transferrin, 50 nM dexamethasone, 1 nM triiodothyronine, 10 ng/ml epidermal growth factor, 5 μg/ml insulin) and 2% FCS. The characteristics of the used cell lines are shown in Supplementary Table S2 .
Stock solutions of α-Glu-AMC (APA) and γ-Glu-AMC and Gly-Gly (γ-GT) substrates, all from Bachem, were prepared at 10 mM in DMSO. EC219 cells were grown to confluence in 96-well plates (Corning, NY, USA), then the culture medium was removed, and the cell layers washed once with 100 µl PBS and 100 µl of substrates at decreasing concentrations (320–10 µM) of α-Glu-AMC or γ-Glu-AMC and 20 mM Gly-Gly substrates diluted in PBS and increasing concentrations (0–20 µM) of SS-31 analogs were added. The increase in […] was measured at 37°C in a thermostated fluorescence multiwell-plate reader (CytoFluor Series 4000; PerSeptive Biosystems, MA, USA) at λex = 360 nm/λem = 460 nm using the linear portion of the curves. The kinetics values were then graphically determined or according to Wu and colleagues ([Wu et al., 2011]).
(A) Intact living EC219 cells were exposed to increasing concentrations of either amastatin (left panel) or acivicin (right panel), two well-characterized enzymatic activity inhibitors of APA or γ-GT, respectively. The activities of the enzymes aminopeptidase A (APA) or γ-glutamyltranspeptidase (γ-GT) were determined using 40 µM of the substrates (S), α-Glu-AMC or γ-Glu-AMC, respectively. (B) Intact living EC219 cells were exposed to increasing concentrations [10-320 µM] of the APA α-Glu-AMC substrate, in the presence of increasing concentrations of SS-31 or α-Glu-SS-31, and the increase of free AMC fluorescence was recorded. Data were analyzed graphically. (DMSO 0.2% was present in all samples).

in vivo = settings: male, mouse, ip, 30 mg/kg
Procedure: For PK evaluation, SS-31 was administered i.p. to male mice in suspension (gelatine/saline 7.5%/0.62% in water) using an administration volume of 4 ml/kg. Blood samples were collected in tubes containing EDTA as an anticoagulant, and plasma was separated by centrifugation and stored at −80°C. Liver and kidney samples (∼100 mg aliquots) were homogenized in three volumes of water using Precellys tissue homogenization tubes (precellys.com). Twenty-five microliters of each tissue homogenate was further diluted with 25 µl blank plasma to produce the final tissue homogenate for extraction. Prepared samples were stored at −20°C before analysis.
All samples were analyzed using protein precipitation followed by LC-MS/MS analysis. Briefly, 50 µl plasma or final tissue homogenate was mixed with 50 µl 0.5 M HClO4/acetonitrile 9/1 (containing 200 ng/ml bosentan as an internal standard). Samples were stirred and 300 µl water was added, followed by centrifugation at 5600 rpm (4°C, 10 min). Ten microliters of supernatant was analyzed by LC/MS. Calibration standards in plasma were prepared the same way. The LC columns and conditions used were as follows: Phenomenex, Polar RP, 4 µm, and 50 × 2.1 mm at 0.4-ml/min flow rate with a 3-min gradient from 95% solvent A to 95% solvent B (solvent A: water/acetonitrile/HCOOH, 90:10:0.1 with 10 mM NH4 formate; solvent B: water/ACN/HCOOH, 10:90:0.1 with 10 mM NH4 formate). Mass spectrometric conditions were as follows: Thermo TSQ Vantage with positive heated electrospray ionization in MS/MS mode. Mass transitions of the compounds were m/z 320.7 to 119.9. Relative concentrations of the drug and metabolites were established by the percentage of peak area ratio compared to time zero spiked compounds. PK parameters for all studies were calculated using Phoenix WinNonlin Software.

T2 sequence (P50123 whole entry): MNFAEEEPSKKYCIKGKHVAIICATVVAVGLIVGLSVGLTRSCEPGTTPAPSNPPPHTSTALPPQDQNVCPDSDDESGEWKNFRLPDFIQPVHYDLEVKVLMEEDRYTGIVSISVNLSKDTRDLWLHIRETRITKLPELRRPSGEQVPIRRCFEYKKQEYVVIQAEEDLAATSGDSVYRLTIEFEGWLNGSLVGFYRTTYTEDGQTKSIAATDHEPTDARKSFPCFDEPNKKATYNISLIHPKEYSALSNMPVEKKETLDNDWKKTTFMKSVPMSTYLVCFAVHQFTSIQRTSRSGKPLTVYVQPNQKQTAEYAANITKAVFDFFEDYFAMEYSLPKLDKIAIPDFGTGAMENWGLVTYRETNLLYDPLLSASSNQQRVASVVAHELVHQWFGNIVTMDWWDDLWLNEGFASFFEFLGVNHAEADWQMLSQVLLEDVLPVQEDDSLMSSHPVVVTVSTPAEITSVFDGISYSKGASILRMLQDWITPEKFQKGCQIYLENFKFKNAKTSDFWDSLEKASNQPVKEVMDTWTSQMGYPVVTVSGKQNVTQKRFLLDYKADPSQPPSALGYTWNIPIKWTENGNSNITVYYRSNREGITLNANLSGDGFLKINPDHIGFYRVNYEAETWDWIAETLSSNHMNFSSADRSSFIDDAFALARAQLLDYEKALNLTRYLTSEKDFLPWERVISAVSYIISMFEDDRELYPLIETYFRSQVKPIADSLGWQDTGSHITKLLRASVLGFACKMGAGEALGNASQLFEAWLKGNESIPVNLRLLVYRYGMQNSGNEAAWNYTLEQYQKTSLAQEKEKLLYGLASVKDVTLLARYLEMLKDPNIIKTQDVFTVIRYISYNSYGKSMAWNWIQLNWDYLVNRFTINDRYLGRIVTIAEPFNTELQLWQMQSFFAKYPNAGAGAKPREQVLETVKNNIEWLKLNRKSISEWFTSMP

Cc1cc(O)cc(C)c1C[C@H](NC(=O)[C@@H](CCCNC(=N)N)NC(=O)[C@@H](N)CCC(=O)O)C(=O)N[C@@H](CCCCN)C(=O)N[C@@H](Cc1ccccc1)C(N)=O [α-Glu-SS-31, H-Glu-D-Arg-DMT-Lys-Phe-NH 2 .2TFA] (H-E[dR][Dmt]KF-NH2)
Release of SS-31 from α-Glu-SS-31 ([1]; time 0 h): 7.5%
Stability [% of T0] ([1]; time 0 h): 100%
Release of SS-31 from α-Glu-SS-31 ([1]; time 0.5 h): 9%
Release of SS-31 from α-Glu-SS-31 ([1]; time 1 h): 9%
Release of SS-31 from α-Glu-SS-31 ([1]; time 3 h): 10%
Release of SS-31 from α-Glu-SS-31 ([1]; time 5 h): 9%
remaining at 0.5 h, 1 µM ([1]; time 0.5 h): 68.5%
remaining at 1 h, 1 µM ([1]; time 1 h): 68.3%
remaining at 3 h, 1 µM ([1]; time 3 h): 66.9%
remaining at 5 h, 1 µM ([1]; time 5 h): 65.8%
enzymatic activity of APA (histoenzymography) (aminopeptidase A (APA) [2]): selectively inhibited
IC50 (aminopeptidase A (APA) [3]): 13.7 ± 6.7 µM
inhibition of APA activity (aminopeptidase A (APA) [3]; intact living EC219 cells): selective inhibition

CC(C)C[C@@H](N)[C@H](O)C(=O)N[C@H](C(=O)N[C@H](C(=O)N[C@@H](CC(=O)O)C(=O)O)C(C)C)C(C)C [amastatin]
IC50 (aminopeptidase A (APA) [3]; intact living EC219 cells, 40 µM α-Glu-AMC, read-out: IC50 APA): < 1 µM

Cc1cc(O)cc(C)c1C[C@H](NC(=O)[C@H](N)CCCNC(=N)N)C(=O)N[C@@H](CCCCN)C(=O)N[C@@H](Cc1ccccc1)C(N)=O [SS-31, D-Arg-dimethylTyr-Lys-Phe-NH2] (H-[dR][Dmt]KF-NH2)
AUC(0-inf) (in vivo; kidney): 31300 ng·h/mL
AUC(0-t) (in vivo; kidney): 27800 ng·h/mL
Cmax (in vivo; kidney): 17200 ng/mL
Tmax (in vivo; kidney): 1 h
half-life (in vivo; kidney): 1.1 h
level at time molar (in vivo; kidney): ~140 nM
AUC(0-inf) (in vivo; liver): 22100 ng·h/mL
AUC(0-t) (in vivo; liver): 20700 ng·h/mL
Cmax (in vivo; liver): 12700 ng/mL
Tmax (in vivo; liver): 1 h
half-life (in vivo; liver): 0.9 h
AUC(0-inf) (in vivo; plasma): 21100 ng·h/mL
AUC(0-t) (in vivo; plasma): 21100 ng·h/mL
Cmax (in vivo; plasma): 20000 ng/mL
Tmax (in vivo; plasma): 1 h
half-life (in vivo; plasma): 0.3 h
Stability [% of T0] ([1]; time 0 h): 100%
remaining at 0.5 h, 1 µM ([1]; time 0.5 h): 89.3%
remaining at 1 h, 1 µM ([1]; time 1 h): 85.3%
remaining at 3 h, 1 µM ([1]; time 3 h): 50.1%
remaining at 5 h, 1 µM ([1]; time 5 h): 43%
IC50 (aminopeptidase A (APA) [3]): 8.5 ± 3.8 µM
